Data reported in patent US12054498B2, “Heteroaromatic macrocyclic ether chemotherapeutic agents” (Nuvalent, Inc., priority 2020, dated 2024).

Tests used:
TRKA-wt = target: T1, TRKA-wt (Homo sapiens, UniProt P04629); assay: Biochemical kinase assay, TRKA-wt kinase domain; settings: apparent inhibitory constant, Morrison equation; ATP 2 mM in substrate solution; read-out: TRKA-wt Ki^app
T1 construct: or TRKA-wt (1 nM, BPS Bio, 40280) kinase domains in buffer; purchased BPS Bio 40280
Description: (§1) First, 250 nL of compound dissolved in DMSO (100-fold of the desired concentration) was dispensed into a 384-well plate. A 12.5 μL substrate solution containing ATP (2 mM) and fluorogenic phosphorylation substrate AQT0101 (26 μM for ALK and ROS1, AssayQuant) or AQT0104 (26 μM for TRKA, AssayQuant) in buffer (50 mM HEPES pH 7.5, 0.01% Brij-35, 0.5 mM EGTA, 10 mM MgCl2) was added and mixed thoroughly. Then, a 12.5 μL kinase solution containing ALK-wt (1.5 nM, Carna, 08-518), ALK ALK L1196M/G1202R (3 nM, SignalChem, A19-12NG), ROS1-wt (0.6 nM, Carna, 08-163), ROS1-G2032R (0.5 nM, SignalChem, R14-12BG), or TRKA-wt (1 nM, BPS Bio, 40280) kinase domains in buffer (50 nM HEPES pH 7.5, 0.01% Brij-35, 2% glycerol, 0.4 mg/mL BSA, 0.5 mM EGTA, and 10 mM MgCl2) was added and mixed thoroughly. The plate was sealed and read by SpectraMax Paradigm at λ=485 nm every 2 minutes for 120 minutes at 30° C. Initial rates of reaction (v) were calculated from the change in fluorescence intensity over time during the initial, linear portion of the reaction. Finally, apparent inhibitory constants (Ki^app) were determined from regression of v and I (inhibitor concentration) to Morrison Equation (E=enzyme concentration): […]

ALK L1196M/G1202R = target: T2, ALK L1196M/G1202R (Homo sapiens, UniProt Q9UM73, G1202R/L1196M); assay: Biochemical kinase assay, ALK L1196M/G1202R kinase domain; settings: apparent inhibitory constant, Morrison equation; ATP 2 mM in substrate solution; read-out: ALK-L1196M-G1202R Ki^app
T2 construct: purchased SignalChem A19-12NG
T2 sequence (Q9UM73 1116-1392 L1196M/G1202R limits assumed): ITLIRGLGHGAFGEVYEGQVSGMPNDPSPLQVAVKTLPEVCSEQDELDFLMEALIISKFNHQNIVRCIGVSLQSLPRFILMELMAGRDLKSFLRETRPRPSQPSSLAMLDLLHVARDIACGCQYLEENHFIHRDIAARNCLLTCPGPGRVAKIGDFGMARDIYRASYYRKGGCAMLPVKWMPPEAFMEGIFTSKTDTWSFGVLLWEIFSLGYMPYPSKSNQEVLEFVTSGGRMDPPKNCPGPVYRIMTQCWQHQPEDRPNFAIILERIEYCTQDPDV
Description: as §1

Ba/F3 cells TPM3-TRKA = target: T3, Ba/F3 cells TPM3-TRKA (Homo sapiens, UniProt P04629); assay: Ba/F3 cell proliferation assay, TPM3-TRKA; type: cell-based; settings: 72 hours, CellTiter-Glo, read-out: TPM3-NTRK1-wt IC50
T3 construct: host or cells: Ba/F3 (RIKEN), retroviral pMSCV-puro; the other entry of the earlier key: TPM3 (P06753, Tropomyosin alpha-3 chain)
T3 sequence (P04629 510-796 limits assumed): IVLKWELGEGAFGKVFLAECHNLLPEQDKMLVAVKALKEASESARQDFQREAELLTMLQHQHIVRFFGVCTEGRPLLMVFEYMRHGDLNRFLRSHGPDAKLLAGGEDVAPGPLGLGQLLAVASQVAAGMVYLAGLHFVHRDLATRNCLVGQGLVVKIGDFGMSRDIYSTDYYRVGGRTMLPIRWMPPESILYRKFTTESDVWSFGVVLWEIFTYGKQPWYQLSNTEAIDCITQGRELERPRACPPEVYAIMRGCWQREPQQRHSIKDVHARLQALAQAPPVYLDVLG
Text: (§2) Genes encoding CD74-ROS1 wild-type (wt), CD74-ROS1 G2032R, CD74-ROS1 S1986F, CD74-ROS1 L2026M, CD74-ROS1 D2033N, EML4-ALK wt (variant 1), EML4-ALK G1202R (variant 1), EML4-ALK L1196M/G1202R (variant 1), EML4-ALK G1202R/G1269A (variant 1), EML4-ALK G1202R/L1198F (variant 1), and TPM3-TRKA were synthesized at GeneRay, cloned into the retroviral construct pMSCV-puro (Biovector), and packaged into retroviral particles. The virus was used to infect Ba/F3 cells (RIKEN) at multiplicity of infection=1 for 1 day. Infected cells were rescued in media (RPMI-1640 with 10% fetal bovine serum and 1% streptomycin and penicillin) supplemented with mouse IL-3 (10 ng/mL) for 2 days, and stable cell lines were selected by IL-3 withdrawal and puromycin (0.8 μg/mL) for 7 days. Monoclones were selected by single-cell dilution in IL-3-free medium containing puromycin (0.8 μg/mL). Transformation of desired genes was confirmed by Sanger sequencing and western blot using the following antibodies: ROS1 (CST #3287), ALK (CST #3633), and pan-TRK (Abcam #76291).
(§3) Cell Proliferation Assay Stable cells were plated at 1,000 cells/well (40 μL) in a 384-well plate for 1 day.
(§4) Test compounds (40 nL) were then added in a 3-fold dilution series using the TECAN EVO200 liquid handler and incubated for 72 hours. Plates were equilibrated at room temperature for 15 minutes followed by addition of 40 μL CellTiter-Glo reagent (Promega).
(§5) Luminescence was measured on a plate reader. Half-maximal inhibitory concentration (IC50) was calculated from percent inhibition and inhibitor concentration using four-parameter logistic regression. […] (nd=not determined).

ROS1-wt = target: T4, ROS1-wt (Homo sapiens, UniProt P08922); assay: Biochemical kinase assay, ROS1-wt kinase domain; settings: apparent inhibitory constant, Morrison equation; ATP 2 mM in substrate solution; read-out: ROS1-wt Ki^app
T4 construct: purchased Carna 08-163
T4 sequence (P08922 1945-2222 limits assumed): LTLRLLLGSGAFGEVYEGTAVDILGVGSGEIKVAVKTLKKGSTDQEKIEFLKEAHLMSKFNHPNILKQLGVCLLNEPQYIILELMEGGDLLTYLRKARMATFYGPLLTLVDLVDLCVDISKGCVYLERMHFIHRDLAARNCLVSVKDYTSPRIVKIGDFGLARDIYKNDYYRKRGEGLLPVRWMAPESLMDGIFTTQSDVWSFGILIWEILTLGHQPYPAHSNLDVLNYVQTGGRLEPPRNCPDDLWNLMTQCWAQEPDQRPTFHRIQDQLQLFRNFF
Description: as §1, with “Then, a 12.5 μL kinase solution containing ALK-wt (1.5 nM, Carna, 08-518), ALK ALK L1196M/G1202R (3 nM, SignalChem, A19-12NG), ROS1-wt (0.6 nM, Carna, 08-163), ROS1-G2032R (0.5 nM, SignalChem, R14-12BG), or TRKA-wt (1 nM, BPS Bio, 40280) kinase domains in buffer (50 nM HEPES pH 7.5, 0.01% Brij-35, 2% glycerol, 0.4 mg/mL BSA, 0.5 mM EGTA, and 10 mM MgCl2) was added and mixed thoroughly.” left out

ALK-wt = target: T5, ALK-wt (Homo sapiens, UniProt Q9UM73); assay: Biochemical kinase assay, ALK-wt kinase domain; settings: apparent inhibitory constant, Morrison equation; ATP 2 mM in substrate solution; read-out: ALK-wt Ki^app
T5 construct: purchased Carna 08-518
T5 sequence (Q9UM73 1116-1392 limits assumed): as the sequence (Q9UM73 1116-1392 L1196M/G1202R limits assumed) above, with M81L, R87G counted along it
Description: as §1

[1] = target: T6, Ba/F3 cells CD74-ROS1 G2032R (Homo sapiens, UniProt P08922, G2032R); assay: Ba/F3 cell proliferation assay, CD74-ROS1 G2032R; type: cell-based; settings: 72 hours, CellTiter-Glo
T6 construct: fusion of the C-terminus of ROS1 with the N-terminus of various partner proteins; host or cells: Ba/F3 (RIKEN), retroviral pMSCV-puro; the other entry of the earlier key: CD74 (P04233, HLA class II histocompatibility antigen gamma chain)
T6 sequence (P08922 1883-2347 G2032R limits assumed): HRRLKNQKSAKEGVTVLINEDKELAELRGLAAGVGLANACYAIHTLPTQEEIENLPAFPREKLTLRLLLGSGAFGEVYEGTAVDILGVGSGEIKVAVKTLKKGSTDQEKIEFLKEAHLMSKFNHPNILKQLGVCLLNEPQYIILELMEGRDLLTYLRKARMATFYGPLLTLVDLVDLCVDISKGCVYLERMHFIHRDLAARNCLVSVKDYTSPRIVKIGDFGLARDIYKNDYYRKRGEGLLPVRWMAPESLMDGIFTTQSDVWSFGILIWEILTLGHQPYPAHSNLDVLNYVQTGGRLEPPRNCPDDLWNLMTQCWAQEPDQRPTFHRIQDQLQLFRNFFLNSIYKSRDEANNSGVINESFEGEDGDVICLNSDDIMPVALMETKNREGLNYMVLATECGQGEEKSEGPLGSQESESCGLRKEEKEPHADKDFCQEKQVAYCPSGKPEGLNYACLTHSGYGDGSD
Description: (§6) The virus was used to infect Ba/F3 cells (RIKEN) at multiplicity of infection=1 for 1 day. Infected cells were rescued in media (RPMI-1640 with 10% fetal bovine serum and 1% streptomycin and penicillin) supplemented with mouse IL-3 (10 ng/mL) for 2 days, and stable cell lines were selected by IL-3 withdrawal and puromycin (0.8 μg/mL) for 7 days. Monoclones were selected by single-cell dilution in IL-3-free medium containing puromycin (0.8 μg/mL).
as §3, §4, §5

[2] = target: T7, Ba/F3 cells EML4-ALK L1196M/G1202R (variant 1) (Homo sapiens, UniProt Q9UM73, G1202R/L1196M); assay: Ba/F3 cell proliferation assay, EML4-ALK L1196M/G1202R (variant 1); type: cell-based; settings: 72 hours, CellTiter-Glo
T7 construct: echinoderm microtubule-associated protein-like 4 (EML4) gene and the ALK tyrosine kinase domain; host or cells: Ba/F3 (RIKEN), retroviral pMSCV-puro; the other entry of the earlier key: EML4 (Q9HC35, Echinoderm microtubule-associated protein-like 4)
T7 sequence (Q9UM73 with tags, fused parts or gaps L1196M/G1202R): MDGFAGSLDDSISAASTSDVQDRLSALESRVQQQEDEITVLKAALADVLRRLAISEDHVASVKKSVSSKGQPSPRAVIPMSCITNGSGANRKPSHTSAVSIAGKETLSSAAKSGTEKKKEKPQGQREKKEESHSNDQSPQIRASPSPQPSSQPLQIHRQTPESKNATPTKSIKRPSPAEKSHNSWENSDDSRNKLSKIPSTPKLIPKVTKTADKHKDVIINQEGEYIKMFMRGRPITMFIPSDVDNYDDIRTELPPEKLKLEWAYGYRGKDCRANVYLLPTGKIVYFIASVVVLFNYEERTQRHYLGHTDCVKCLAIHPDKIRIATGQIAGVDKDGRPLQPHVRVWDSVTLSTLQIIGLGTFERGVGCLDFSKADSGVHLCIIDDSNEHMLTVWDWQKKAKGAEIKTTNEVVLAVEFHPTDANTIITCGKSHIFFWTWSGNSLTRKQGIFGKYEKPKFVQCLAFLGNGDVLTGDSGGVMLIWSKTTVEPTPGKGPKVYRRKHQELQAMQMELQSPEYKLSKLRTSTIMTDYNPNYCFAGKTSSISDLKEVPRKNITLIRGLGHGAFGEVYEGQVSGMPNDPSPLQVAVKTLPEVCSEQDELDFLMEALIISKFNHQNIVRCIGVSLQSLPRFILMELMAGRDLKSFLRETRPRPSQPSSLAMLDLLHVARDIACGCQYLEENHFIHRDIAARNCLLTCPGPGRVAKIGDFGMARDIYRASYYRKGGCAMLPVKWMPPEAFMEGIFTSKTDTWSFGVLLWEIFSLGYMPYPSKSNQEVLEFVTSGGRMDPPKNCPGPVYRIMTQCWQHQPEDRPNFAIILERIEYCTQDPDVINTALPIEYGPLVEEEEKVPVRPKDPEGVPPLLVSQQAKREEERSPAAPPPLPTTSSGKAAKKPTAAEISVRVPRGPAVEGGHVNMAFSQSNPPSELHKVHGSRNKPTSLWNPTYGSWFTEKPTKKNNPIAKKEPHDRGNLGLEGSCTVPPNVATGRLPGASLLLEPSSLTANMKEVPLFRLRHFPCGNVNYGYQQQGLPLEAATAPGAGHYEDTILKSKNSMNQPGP
Text: as §2, §3, §4, §5

ROS1-G2032R = target: T8, ROS1-G2032R (Homo sapiens, UniProt P08922, G2032R); assay: Biochemical kinase assay, ROS1-G2032R kinase domain; settings: apparent inhibitory constant, Morrison equation; ATP 2 mM in substrate solution; read-out: ROS1-G2032R Ki^app
T8 construct: purchased SignalChem R14-12BG
T8 sequence (P08922 1945-2222 G2032R limits assumed): as the sequence (P08922 1945-2222 limits assumed) above, with G88R counted along it
Description: as §1, with “Then, a 12.5 μL kinase solution containing ALK-wt (1.5 nM, Carna, 08-518), ALK ALK L1196M/G1202R (3 nM, SignalChem, A19-12NG), ROS1-wt (0.6 nM, Carna, 08-163), ROS1-G2032R (0.5 nM, SignalChem, R14-12BG), or TRKA-wt (1 nM, BPS Bio, 40280) kinase domains in buffer (50 nM HEPES pH 7.5, 0.01% Brij-35, 2% glycerol, 0.4 mg/mL BSA, 0.5 mM EGTA, and 10 mM MgCl2) was added and mixed thoroughly.” left out

[3] = tested on: TPM3-NTRK1-wt IC50 / primary target IC50 (e.g. CD74-ROS1-wt); assay: TRKA selectivity in Ba/F3 cells (TRKA potency divided by primary target potency); type: cell-based; settings: for TPM3-NTRK1-wt/CD74-ROS1-G2032R selectivity ratio: TRKA potency / CD74-ROS1-G2032R potency; for TPM3-NTRK1-wt/EML4-ALK-L1196M-G1202R selectivity ratio: TRKA potency / EML4-ALK-L1196M-G1202R potency
Description: TRKA selectivity was calculated by dividing a compound's TRKA potency by its primary target potency (e.g. TPM3-NTRK1-wt IC50/CD74-ROS1-wt IC50). Compound selectivity can be interpreted by binning ratio values: bin A for very high selectivity, ratio >30-fold; bin B for high selectivity, ratio >10-fold; bin C for moderate selectivity, ratio ≥1; and bin D for low selectivity, ratio <1. […] (nd=not determined).

[4] = target: T9, Ba/F3 cells CD74-ROS1 wild-type (wt) (Homo sapiens, UniProt P08922); assay: Ba/F3 cell proliferation assay, CD74-ROS1 wild-type; type: cell-based; settings: 72 hours, CellTiter-Glo
T9 construct: fusion of the C-terminus of ROS1 with the N-terminus of various partner proteins; host or cells: Ba/F3 (RIKEN), retroviral pMSCV-puro; the other entry of the earlier key: CD74 (P04233, HLA class II histocompatibility antigen gamma chain)
T9 sequence (P08922 1883-2347 limits assumed): as the sequence (P08922 1883-2347 G2032R limits assumed) above, with R150G counted along it
Description: as §6, §3, §4, §5

[5] = target: T10, Ba/F3 cells EML4-ALK wt (variant 1) (Homo sapiens, UniProt Q9UM73); assay: Ba/F3 cell proliferation assay, EML4-ALK wt (variant 1); type: cell-based; settings: 72 hours, CellTiter-Glo
T10 construct: echinoderm microtubule-associated protein-like 4 (EML4) gene and the ALK tyrosine kinase domain; host or cells: Ba/F3 (RIKEN), retroviral pMSCV-puro; the other entry of the earlier key: EML4 (Q9HC35, Echinoderm microtubule-associated protein-like 4)
T10 sequence (Q9UM73 with tags, fused parts or gaps): as the sequence (Q9UM73 with tags, fused parts or gaps L1196M/G1202R) above, with M635L, R641G counted along it
Text: as §2, §3, §4, §5

T1 sequence (P04629 510-781 limits assumed): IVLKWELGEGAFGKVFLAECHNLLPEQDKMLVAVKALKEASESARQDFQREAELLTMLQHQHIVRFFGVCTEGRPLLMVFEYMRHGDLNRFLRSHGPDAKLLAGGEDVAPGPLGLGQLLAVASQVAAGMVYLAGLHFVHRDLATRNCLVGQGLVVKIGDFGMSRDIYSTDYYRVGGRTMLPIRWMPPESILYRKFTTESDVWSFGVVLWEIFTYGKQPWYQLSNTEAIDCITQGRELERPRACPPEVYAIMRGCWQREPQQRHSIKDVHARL

Row | Structure (SMILES) | Ki (TRKA-wt) [nM] | Ki (ALK L1196M/G1202R) [nM] | IC50 (Ba/F3 cells TPM3-TRKA) [nM] | Ki (ROS1-wt) [nM] | Ki (ALK-wt) [nM] | IC50 [1] [nM] | IC50 [2] [nM] | Ki (ROS1-G2032R) [nM] | TPM3-NTRK1-wt/CD74-ROS1-G2032R selectivity ratio [3] | TPM3-NTRK1-wt/EML4-ALK-L1196M-G1202R selectivity ratio [3] | IC50 [4] [nM] | IC50 [5] [nM] | TPM3-NTRK1-wt/CD74-ROS1-wt selectivity ratio ([3]; TRKA potency / CD74-ROS1-wt potency) | TPM3-NTRK1-wt/EML4-ALK-wt selectivity ratio ([3]; TRKA potency / EML4-ALK-wt potency)
1 | CCn1ncc2c1-c1cnc(N)c(c1)O[C@H](C)c1cc(F)ccc1-c1nccnc1C2 [Example 36, (20R)-3-ethyl-17-fluoro-20-methyl-21-oxa-3,4,9,12,24-pentaazapentacyclo[20.3.1.0^2,^6.0^8,^13.0^14,^19]hexacosa-1(25),2(6),4,8(13),9,11,14,16,18,22(26),23-undecaen-23-amine] | 50 to 500 | < 50 | 50 to 500 | < 50 | < 50 | 0.1 to 50 | 0.1 to 50 | < 50 | A (bin A for very high selectivity, ratio >30-fold) | B (bin B for high selectivity, ratio >10-fold) | – | – | – | –
2 | CCn1ncc2c1-c1cnc(N)c(c1)O[C@H](C)c1cc(F)ccc1-c1cc(OC)nn1C2 [Example 89, (19R)-3-ethyl-16-fluoro-10-methoxy-19-methyl-20-oxa-3,4,8,9,23-pentaazapentacyclo[19.3.1.0^2,^6.0^8,^12.0^13,^18]pentacosa 1(24),2(6),4,9,11,13,15,17,21(25),22-decaen-22-amine] | 50 to 500 | < 50 | 50 to 500 | – | < 50 | 0.1 to 50 | 50 to 500 | < 50 | A (bin A for very high selectivity, ratio >30-fold) | D (bin D for low selectivity, ratio <1) | 0.1 to 50 | 0.1 to 50 | A (bin A for very high selectivity, ratio >30-fold) | B (bin B for high selectivity, ratio >10-fold)
3 | Cc1nn(CC2CC2)c2c1Cc1nn(C)nc1-c1ccc(F)cc1[C@@H](CO)Oc1cc-2cnc1N [Example 96, [(19S)-22-amino-3-(cyclopropylmethyl)-16-fluoro-5,10-hexaazapentacyclo[19.3.1.0^2,^6.0^8,^12.0^13,^18]pentacosa-1(24),2(6),4,8,11,13,15,17,21(25),22-decaen-19-yl]methanol] | > 500 | < 50 | > 500 | < 50 | < 50 | – | 50 to 500 | < 50 | – | A (bin A for very high selectivity, ratio >30-fold) | – | – | – | –
